Experimental data reported in article PMC2192203 (The Journal of Experimental Medicine, 1995).

Assays:
[1] = tested on: MHC class II-restricted presentation by APCs; details: cited from earlier work
[2] = tested on: CD4+ T cell line P69.2 (Ed-restricted, Ld 61-80-specific); experiment: T cell line P69.2 proliferation assay; type: cell-based, mouse; details: for natural presentation of self-peptide: no exogenously added peptide
[3] = tested on: T cells from Ld 61-80-primed B10.A mice; details: H-2k class II-restricted; cited from earlier work
[4] = tested on: lymph node cells from mice immunized with the peptide; details: syngeneic B10.A mice; cited from earlier work
[5] = tested on: CD4+ T cell line B10.A-P11.2 (Ek-restricted, Ld 61-80-specific); experiment: T cell line B10.A-P11.2 proliferation assay; type: cell-based, mouse; details: no added peptide
[6] = tested on: lymph node cells from mice immunized with the peptide; experiment: Lymph node / spleen T cell proliferation assay of peptide-immunized mice; type: cell-based, mouse
[7] = tested on: BALB/c-dm2 lymph node T cells primed with Ld 61-80; experiment: T cell determinant mapping with overlapping 12 mers; type: cell-based, mouse; details: dm2 mice primed with Ld 61-80, single residue steps, Fig. 4
[8] = target: I-Ed MHC class II molecules (Mus musculus, UniProt P01904+P01915); details: Fig. 2 B legend; control peptide; no reference given; cited from earlier work
[9] = tested on: I-Ek MHC class II molecules; details: Fig. 2 A legend; control peptide; no reference given; cited from earlier work

Substance: EtLITQIAKGQEQWFILVNLR,T [Ld 61-80]
- in vitro presentation by BALB/c APCs ([1]; BALB/c APCs, self-MHC class II): regularly presented in vitro
- stimulation of Ld 61-80-specific class II-restricted T cell hybridoma ([1]; Ii-positive and -negative APCs): could be stimulated in the presence of both Ii- positive and -negative APCs
- TAP-1 requirement of class II presentation [1]: does not require a functional TAP-1 protein
- natural presentation of self-peptide ([2]; (B10.A x B10.D2) F1 APCs, Fig. 3 C): could not spontaneously process and present
- stimulation of P69.2 in presence of specific peptide ([2]; B10.GD splenocytes (lacking Ed) as APCs): could not stimulate
- natural presentation of self-peptide ([2]; BALB/c APCs, Fig. 3 B): continuously process and present
- stimulation of P69.2 by added peptide ([2]; dm2 APCs, 60 h, [3H]thymidine last 12 h, Fig. 3 B): required
- core region of determinant (residues) [3]: 66-74
- T cell response induced [4]: potent MHC class II-restricted T cell responses
- natural presentation of self-peptide ([5]; B10.A splenocytes, Fig. 3 A): did not naturally process
- natural presentation of self-peptide ([5]; B10.A(5R) APCs, Fig. 7): present spontaneously
- immunogenicity ([6]; (B10.A x B10.D2) F1 mice (Fig. 1 D)): immunogenic and therefore cryptic
- phenotype of self-peptide (cryptic or dominant) ([6]; A.TL and B10.MBR mice): cryptic
- immunogenicity ([6]; A/J mice (Table 1)): vigorous T cell responses
- phenotype of self-peptide (cryptic or dominant) ([6]; B10.A(5R) mice): dominant
- T cell proliferation after immunization ([6]; B10.A(5R) mice (Fig. 6), five mice tested individually): no T cell proliferation was detected
- immunogenicity ([6]; B10.AKM mice (Table 2)): immunogenic
- immunogenicity ([6]; B10.D2 mice (Table 1)): failed to respond
- immunogenicity ([6]; BALB/c mice (Fig. 1 B)): nonimmunogenic
- immunogenicity ([6]; DBA/2 mice (Table 1)): nonimmunogenic
- immunogenicity ([6]; dm2 mutant mice, not expressing Ld (Fig. 1 C)): immunogenic
- phenotype of self-peptide (cryptic or dominant) ([6]; parental H-2s and H-2b mice): dominant
- core region of determinant (residues) [7]: 69-76

Substance: HEL 105-120: hen egg white lysozyme (HEL) 105-120 peptide known for its binding to Ed (MNAWVAWRNRCKGTDV; UniProt P00698 123-138, looked up, fragment)
- binding to I-Ed (control designation) [8]: known binder

Substance: HEL 1-17: known binder peptide in the I-Ek competition assay (KVFGRCELAAAMKRHGL; UniProt P00698 19-35, looked up, fragment)
- binding to I-Ek (control designation) [9]: known binder
